# From patent US12220399B2, “Pharmaceutical compositions comprising one or more pyrone compounds, and their use for treating inflammatory and neurodegenerative diseases” (NeuroTheryX Canada LTD, priority 2015, dated 2025)
# Legend:
# MO3-13 cells [1] = assay: Protection of MO3-13 oligodendrocytes from Cpz toxicity; format: cell-based, human; settings: compound at 5 μM, Cpz at 50 μM, 24 hrs, visual assessment, FIG. 2
# Description: The protective effects of compounds […] on MO3-13 cells from Cpz toxicity were then determined. […] Cpz at a final concentration of 50 μM was solubilized in 100% ethanol was added to selected dishes with compound A1 or A2 at 5 μM in DMSO, or DMSO alone as a control.
# [2] = system: myelin basic protein (MBP); assay: Induction of myelin basic protein (MBP) production, anti-MBP slot blot of MO3-13 whole cell extracts; format: cell-based, human; settings: FIG. 3
# Description: Dilutions (0.1 mg/mL) of MO3-13 whole cell extracts were prepared and the proteins (5 μg) from the dilutions were blotted onto nitrocellulose membrane using a slot blotter. The non-protein sites on the blot were blocked with 2% ECL block in PBS-Tween20. Primary anti-Bov MBP was diluted in block solution at 300×. The primary antibody was incubated overnight at 4° C. with gentle shaking. The following day the blot was developed using enhanced ECL (GE Healthcare) method. Image of bound antibody were captured using Image Lab software driving a Bio-Rad ChemiDoc XRS+ image capture system.
# MO3-13 cells [3] = settings: differentiated (serum deprived 48 hrs) MO3-13 cells, increasing amounts of Cpz, 24 hrs, visual assessment by phase contrast, FIG. 1
# Description: MO3-13 cells were plated onto 10 cm cell culture dishes and grown in DMEM containing 5% FBS. Cells were grown to 75% confluence, after which serum containing DMEM medium was replaced with FBS free DMEM. Cells were grown for 48 hrs under serum deprived conditions.
# [4] = MO3-13 cells treated with Cpz (50 μM) plus compound (5 μM)
# [5] = MO3-13 cells treated with compound alone (5 μM)
Structure (SMILES),protection of human oligodendrocytes (MO3-13) against the toxicity of Cpz (MO3-13 cells [1]),"MBP bound by anti-MBP [2, 4]","MBP bound by anti-MBP [2, 5]",Cpz toxicity to MO3-13 cells (MO3-13 cells [3]),anti-MBP antibody binding as compared with non-treated (DMSO) cells ([2]; MO3-13 cells treated with Cpz (50 μM))
"O=c1cc(-c2ccccc2)cc(-c2ccccc2)o1 [A3, 4,6-diphenyl-2H-pyran-2-one]",protection,significantly higher,significantly higher,,
"O=C(NN=C1CCCCC1)C(=O)NN=C1CCCCC1 [Cpz, cuprizone, reference compound]",,,,toxic,reduced
"O=c1cc(-c2ccccc2)cc(C2CCCCC2)o1 [compound A2, 6-cyclohexyl-4-phenyl-2H-pyran-2-one]",protection,significantly higher,significantly higher,,
